# According to ChEMBL document CHEMBL6078656, “Pattern-Based Genome Mining Guides Discovery of the Antibiotic Indanopyrrole A from a Marine Streptomycete” (J Nat Prod, 2024):
# Columns and labels:
# Escherichia coli [1] = test: Antibacterial activity against Escherichia coli K1 RS218 assessed as inhibition of bacterial growth incubated for 24 hrs by CLSI based broth microdilution method; type: functional
# Streptococcus = test: Antibacterial activity against Streptococcus M1T1 assessed as inhibition of bacterial growth incubated for 24 hrs by CLSI based broth microdilution method; type: functional
# [2] = tested on: Staphylococcus epidermidis; test: Antibacterial activity against methicillin-resistant Staphylococcus epidermidis assessed as inhibition of bacterial growth incubated for 24 hrs by CLSI based broth microdilution method; type: functional
# Escherichia coli [3] = test: Antibacterial activity against Escherichia coli LptD4213 assessed as inhibition of bacterial growth incubated for 18 hrs by broth microdilution method; type: functional
# Enterococcus faecium = test: Antibacterial activity against vancomycin-resistant Enterococcus faecium DAPS assessed as inhibition of bacterial growth incubated for 24 hrs by CLSI based broth microdilution method; type: functional
# A549 = test: Cytotoxicity against human A549 cells assessed as increase in LDH release at 16 microg/ml incubated for 24 hrs; type: toxicity, cell-based; details: a549, 24 h, dose 16 µg/ml
# Haemophilus influenzae [4] = test: Antibacterial activity against Haemophilus influenzae 2 assessed as inhibition of bacterial growth incubated for 24 hrs by CLSI based broth microdilution method; type: functional
# Staphylococcus aureus = test: Antibacterial activity against Staphylococcus aureus TCH1516 assessed as inhibition of bacterial growth incubated for 24 hrs by CLSI based broth microdilution method; type: functional
# Acinetobacter baumannii = test: Antibacterial activity against Acinetobacter baumannii 5075 assessed as inhibition of bacterial growth incubated for 24 hrs by CLSI based broth microdilution method; type: functional
# Haemophilus influenzae [5] = test: Antibacterial activity against Haemophilus influenzae 1 assessed as inhibition of bacterial growth incubated for 24 hrs by CLSI based broth microdilution method; type: functional
Structure (SMILES),MIC (Escherichia coli [1]) [µg/mL],MIC (Streptococcus) [µg/mL],MIC [2] [µg/mL],MIC (Escherichia coli [3]) [µg/mL],MIC (Enterococcus faecium) [µg/mL],Activity (A549),MIC (Haemophilus influenzae [4]) [µg/mL],MIC (Staphylococcus aureus) [µg/mL],MIC (Acinetobacter baumannii) [µg/mL],MIC (Haemophilus influenzae [5]) [µg/mL]
C/C(=C\[C@H]1C=C[C@H]2CC[C@@H](C)[C@@H]2[C@H]1C(=O)c1[nH]c(Cl)c(Cl)c1Cl)C[C@@H](C)C(=O)O,> 32,4,4,4,4,Toxic,2,2,> 32,1
C/C(=C\[C@H]1C=C[C@H]2CC[C@@H](C)[C@@H]2[C@H]1C(=O)c1cc(Cl)c(Cl)[nH]1)C[C@@H](C)C(=O)O,> 16,> 16,–,–,> 16,–,–,> 16,–,–
